Measured values: ChEMBL document CHEMBL4024706 (Eur J Med Chem, 2017)

Tests used:
[1] = molecular target: Tyrosine-protein kinase BTK (Homo sapiens, UniProt Q06187, C481S); assay: Irreversible inhibition of recombinant full length 3'-FLAG-tagged BTK C481S mutant (unknown origin) expressed in HEK293T cells assessed as reduction in Y223 phosphorylation measured after 4 hrs by Western blot method; type: cell-based
OCI-AML-3 = assay: Growth inhibition of human OCI-AML3 cells; type: functional; settings: Homo sapiens, OCI-AML-3
[2] = Cmax in Sprague-Dawley rat at 10 mg/kg, po by LC-MS/MS method; type: ADME, organism-based; parameters: dose 10 mg/kg, route oral; settings: in vivo
[3] = molecular target: Calcium/calmodulin-dependent protein kinase type II subunit alpha (Homo sapiens) (UniProt Q9UQM7); assay: Inhibition of wild-type human partial length CAMK2A (M1 to K328 residues) expressed in bacterial expression system assessed as residual activity at 1 uM by Kinomescan method relative to control
Calcium/calmodulin-dependent protein kinase type II subunit alpha (Homo sapiens), sequence (Q9UQM7 whole entry, the tested form may be a part): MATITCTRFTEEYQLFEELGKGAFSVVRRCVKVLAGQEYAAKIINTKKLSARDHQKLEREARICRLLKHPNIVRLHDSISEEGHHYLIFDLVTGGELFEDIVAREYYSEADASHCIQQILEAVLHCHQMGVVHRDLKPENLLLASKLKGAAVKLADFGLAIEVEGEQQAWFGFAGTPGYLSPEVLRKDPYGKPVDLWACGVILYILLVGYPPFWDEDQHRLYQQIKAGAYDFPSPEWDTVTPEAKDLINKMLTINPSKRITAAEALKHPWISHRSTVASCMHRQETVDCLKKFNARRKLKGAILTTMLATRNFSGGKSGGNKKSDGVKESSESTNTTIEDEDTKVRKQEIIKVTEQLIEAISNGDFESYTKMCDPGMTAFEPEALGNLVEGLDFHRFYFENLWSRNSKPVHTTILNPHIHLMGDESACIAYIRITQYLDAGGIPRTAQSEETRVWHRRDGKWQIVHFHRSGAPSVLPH

[4] = molecular target: Calcium/calmodulin-dependent protein kinase type II subunit beta (Homo sapiens) (UniProt Q13554); assay: Inhibition of wild-type human partial length CAMK2B (M1 to Q380 residues) expressed in bacterial expression system assessed as residual activity at 1 uM by Kinomescan method relative to control
[5] = molecular target: Cyclin-dependent kinase 9 (Homo sapiens) (UniProt P50750); assay: Inhibition of wild-type human full length CDK9 (M1 to F372 residues) expressed in bacterial expression system assessed as residual activity at 1 uM by Kinomescan method relative to control
Cyclin-dependent kinase 9 (Homo sapiens), sequence (P50750 whole entry, the tested form may be a part): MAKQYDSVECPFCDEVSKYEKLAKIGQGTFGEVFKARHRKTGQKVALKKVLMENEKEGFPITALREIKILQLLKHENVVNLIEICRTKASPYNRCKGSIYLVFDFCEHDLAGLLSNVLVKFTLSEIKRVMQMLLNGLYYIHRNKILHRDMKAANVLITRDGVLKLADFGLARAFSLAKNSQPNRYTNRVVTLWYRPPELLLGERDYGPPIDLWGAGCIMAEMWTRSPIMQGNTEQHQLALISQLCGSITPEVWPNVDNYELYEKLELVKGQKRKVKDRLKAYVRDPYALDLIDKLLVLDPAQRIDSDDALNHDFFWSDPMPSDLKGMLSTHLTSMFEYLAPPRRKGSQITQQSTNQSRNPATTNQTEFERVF

[6] = molecular target: Macrophage colony-stimulating factor 1 receptor (Homo sapiens) (UniProt P07333); assay: Inhibition of wild-type human partial length autoinhibited CSF1R (Y538 to S939 residues) expressed in mammalian expression system assessed as residual activity at 1 uM by Kinomescan method relative to control
[7] = system: Epidermal growth factor receptor (Homo sapiens), P00533 [L861Q]; assay: Inhibition of human partial length EGFR L861Q mutant (R669 to V1011 residues) expressed in bacterial expression system assessed as residual activity at 1 uM by Kinomescan method relative to control
[8] = molecular target: Tyrosine-protein kinase JAK3 (Homo sapiens) (UniProt P52333); assay: Inhibition of wild-type human partial length JAK3 JH1 catalytic domain (I781 to S1124 residues) expressed in mammalian expression system assessed as residual activity at 1 uM by Kinomescan method relative to control
Tyrosine-protein kinase JAK3 (Homo sapiens), sequence (P52333 whole entry, the tested form may be a part): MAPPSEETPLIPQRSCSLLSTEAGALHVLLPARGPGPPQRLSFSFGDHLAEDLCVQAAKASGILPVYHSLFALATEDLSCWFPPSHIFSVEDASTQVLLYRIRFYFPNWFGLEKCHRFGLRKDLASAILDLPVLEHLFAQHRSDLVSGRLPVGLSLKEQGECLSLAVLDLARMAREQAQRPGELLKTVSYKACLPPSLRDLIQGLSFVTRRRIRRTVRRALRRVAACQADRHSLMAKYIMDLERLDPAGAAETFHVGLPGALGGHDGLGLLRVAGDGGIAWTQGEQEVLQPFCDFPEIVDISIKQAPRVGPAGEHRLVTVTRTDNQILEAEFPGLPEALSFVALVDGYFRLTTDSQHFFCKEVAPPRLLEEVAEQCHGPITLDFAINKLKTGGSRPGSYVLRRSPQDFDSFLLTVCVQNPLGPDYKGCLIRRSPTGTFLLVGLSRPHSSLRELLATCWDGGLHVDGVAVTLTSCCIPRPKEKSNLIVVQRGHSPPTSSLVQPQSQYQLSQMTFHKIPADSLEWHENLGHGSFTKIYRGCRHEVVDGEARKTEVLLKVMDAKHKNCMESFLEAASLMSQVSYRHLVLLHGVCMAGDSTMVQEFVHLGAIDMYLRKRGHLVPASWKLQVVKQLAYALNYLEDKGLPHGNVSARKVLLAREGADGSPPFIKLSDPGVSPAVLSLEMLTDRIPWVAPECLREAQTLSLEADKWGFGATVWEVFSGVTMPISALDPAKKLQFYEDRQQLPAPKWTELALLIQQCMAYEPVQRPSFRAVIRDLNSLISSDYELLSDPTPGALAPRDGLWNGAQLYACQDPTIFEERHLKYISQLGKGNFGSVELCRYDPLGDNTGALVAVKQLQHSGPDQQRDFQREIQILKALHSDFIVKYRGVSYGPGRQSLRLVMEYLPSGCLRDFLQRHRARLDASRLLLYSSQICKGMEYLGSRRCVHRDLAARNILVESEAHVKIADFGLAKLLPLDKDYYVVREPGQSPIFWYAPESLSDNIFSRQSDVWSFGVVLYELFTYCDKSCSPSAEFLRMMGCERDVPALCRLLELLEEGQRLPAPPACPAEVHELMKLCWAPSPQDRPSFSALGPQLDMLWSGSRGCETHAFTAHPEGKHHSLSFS

[9] = molecular target: Leucine-rich repeat serine/threonine-protein kinase 2 (Homo sapiens) (UniProt Q5S007); assay: Inhibition of wild-type human partial length LRRK2 (H970 to E2527 residues) expressed in mammalian expression system assessed as residual activity at 1 uM by Kinomescan method relative to control
[10] = molecular target: Myosin light chain kinase, smooth muscle (Homo sapiens) (UniProt Q15746); assay: Inhibition of wild-type human full length MYLK (M854 to E1845 residues) expressed in mammalian expression system assessed as residual activity at 1 uM by Kinomescan method relative to control
[11] = molecular target: Myosin-IIIa (Homo sapiens) (UniProt Q8NEV4); assay: Inhibition of wild-type human partial length MYO3A (M1 to K338 residues) expressed in bacterial expression system assessed as residual activity at 1 uM by Kinomescan method relative to control
[12] = molecular target: Serine/threonine-protein kinase Nek7 (Homo sapiens) (UniProt Q8TDX7); assay: Inhibition of wild-type human full length NEK7 (M1 to S302 residues) expressed in bacterial expression system assessed as residual activity at 1 uM by Kinomescan method relative to control
Serine/threonine-protein kinase Nek7 (Homo sapiens), sequence (Q8TDX7 whole entry, looked up, the tested form may be a part): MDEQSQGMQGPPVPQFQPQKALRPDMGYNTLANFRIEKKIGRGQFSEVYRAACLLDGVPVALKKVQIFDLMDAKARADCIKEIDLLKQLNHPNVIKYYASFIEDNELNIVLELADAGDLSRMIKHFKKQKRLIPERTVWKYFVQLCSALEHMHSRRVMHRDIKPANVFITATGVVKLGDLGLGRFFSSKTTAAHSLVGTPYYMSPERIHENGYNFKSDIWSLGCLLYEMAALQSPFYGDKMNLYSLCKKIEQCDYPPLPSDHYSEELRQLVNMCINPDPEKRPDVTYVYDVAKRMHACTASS

[13] = molecular target: Cyclin-dependent kinase 14 (Homo sapiens) (UniProt O94921); assay: Inhibition of wild-type human full length PFTK1 (M1 to H451 residues) expressed in bacterial expression system assessed as residual activity at 1 uM by Kinomescan method relative to control
[14] = system: Phosphatidylinositol 4,5-bisphosphate 3-kinase catalytic subunit alpha isoform (Homo sapiens), P42336 [H1047L]; assay: Inhibition of human partial length PIK3CA H1047L mutant (R108 to N1068 residues) expressed in mammalian expression system assessed as residual activity at 1 uM by Kinomescan method relative to control
Phosphatidylinositol 4,5-bisphosphate 3-kinase catalytic subunit alpha isoform (Homo sapiens), P42336 [H1047L], sequence (P42336 whole entry H1047L, the tested form may be a part, canonical isoform): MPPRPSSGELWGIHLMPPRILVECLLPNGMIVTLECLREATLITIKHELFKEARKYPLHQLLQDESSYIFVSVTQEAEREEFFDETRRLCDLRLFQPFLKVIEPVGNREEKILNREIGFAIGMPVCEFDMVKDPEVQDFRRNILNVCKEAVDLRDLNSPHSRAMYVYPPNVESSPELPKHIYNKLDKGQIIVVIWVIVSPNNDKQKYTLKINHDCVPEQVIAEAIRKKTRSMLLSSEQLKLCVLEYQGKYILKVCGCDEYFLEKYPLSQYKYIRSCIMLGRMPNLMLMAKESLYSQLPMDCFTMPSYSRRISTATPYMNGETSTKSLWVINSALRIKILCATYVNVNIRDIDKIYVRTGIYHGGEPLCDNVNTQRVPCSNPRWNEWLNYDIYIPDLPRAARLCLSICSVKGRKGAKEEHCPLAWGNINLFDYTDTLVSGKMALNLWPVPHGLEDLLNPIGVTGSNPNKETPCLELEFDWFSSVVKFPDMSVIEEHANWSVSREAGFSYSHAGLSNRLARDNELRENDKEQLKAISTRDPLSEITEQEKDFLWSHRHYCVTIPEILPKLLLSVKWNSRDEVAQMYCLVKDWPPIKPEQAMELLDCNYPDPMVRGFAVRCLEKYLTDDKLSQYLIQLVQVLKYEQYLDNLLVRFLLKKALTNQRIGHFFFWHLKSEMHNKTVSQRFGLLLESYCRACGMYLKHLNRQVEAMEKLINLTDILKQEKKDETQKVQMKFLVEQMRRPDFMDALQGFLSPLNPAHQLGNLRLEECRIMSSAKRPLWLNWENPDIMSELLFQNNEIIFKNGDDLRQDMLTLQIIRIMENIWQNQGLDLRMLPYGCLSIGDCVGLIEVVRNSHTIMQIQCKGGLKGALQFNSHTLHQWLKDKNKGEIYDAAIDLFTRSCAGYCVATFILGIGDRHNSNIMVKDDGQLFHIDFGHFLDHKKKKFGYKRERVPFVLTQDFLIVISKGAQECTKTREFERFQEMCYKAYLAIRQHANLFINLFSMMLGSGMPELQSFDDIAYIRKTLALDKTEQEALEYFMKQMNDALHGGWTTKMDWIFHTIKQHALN

[15] = molecular target: Serine/threonine-protein kinase N2 (Homo sapiens) (UniProt Q16513); assay: Inhibition of wild-type human partial length PKN2 (E634 to C984 residues) expressed in bacterial expression system assessed as residual activity at 1 uM by Kinomescan method relative to control
Serine/threonine-protein kinase N2 (Homo sapiens), sequence (Q16513 whole entry, looked up, the tested form may be a part): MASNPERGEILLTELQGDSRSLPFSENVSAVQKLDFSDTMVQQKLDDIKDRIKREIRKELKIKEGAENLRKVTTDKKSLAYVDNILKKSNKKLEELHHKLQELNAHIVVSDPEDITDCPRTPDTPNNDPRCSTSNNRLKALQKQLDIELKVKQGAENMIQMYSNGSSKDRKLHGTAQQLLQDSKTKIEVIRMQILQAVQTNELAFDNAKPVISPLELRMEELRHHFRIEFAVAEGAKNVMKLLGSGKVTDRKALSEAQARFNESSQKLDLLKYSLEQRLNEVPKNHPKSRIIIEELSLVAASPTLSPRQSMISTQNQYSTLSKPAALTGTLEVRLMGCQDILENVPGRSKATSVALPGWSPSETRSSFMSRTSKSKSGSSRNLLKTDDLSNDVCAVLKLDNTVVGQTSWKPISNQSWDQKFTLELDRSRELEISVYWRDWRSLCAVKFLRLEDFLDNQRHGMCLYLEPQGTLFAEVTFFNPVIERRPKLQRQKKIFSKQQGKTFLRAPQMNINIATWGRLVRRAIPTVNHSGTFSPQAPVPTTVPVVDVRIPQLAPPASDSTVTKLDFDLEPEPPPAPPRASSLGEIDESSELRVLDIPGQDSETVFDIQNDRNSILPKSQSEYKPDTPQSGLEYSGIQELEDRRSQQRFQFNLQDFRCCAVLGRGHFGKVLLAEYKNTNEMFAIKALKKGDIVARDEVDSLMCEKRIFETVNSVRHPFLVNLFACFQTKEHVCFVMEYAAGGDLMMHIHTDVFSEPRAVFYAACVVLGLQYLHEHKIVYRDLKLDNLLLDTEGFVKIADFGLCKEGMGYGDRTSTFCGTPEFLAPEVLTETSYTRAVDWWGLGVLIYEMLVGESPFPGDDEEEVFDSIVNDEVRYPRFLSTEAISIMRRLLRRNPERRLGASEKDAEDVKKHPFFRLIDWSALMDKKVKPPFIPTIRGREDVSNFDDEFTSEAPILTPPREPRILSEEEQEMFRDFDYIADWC

[16] = molecular target: Serine/threonine-protein kinase PknB (Mycobacterium tuberculosis) (UniProt P9WI81); assay: Inhibition of wild-type Mycobacterium tuberculosis H37Rv ATCC 25618 partial length PKNB (M1 to G279 residues) expressed in mammalian expression system assessed as residual activity at 1 uM by Kinomescan method relative to control
[17] = molecular target: Protein-tyrosine kinase 2-beta (Homo sapiens) (UniProt Q14289); assay: Inhibition of wild-type human full length PYK2 (M1 to E967 residues) expressed in bacterial expression system assessed as residual activity at 1 uM by Kinomescan method relative to control
[18] = molecular target: RAF proto-oncogene serine/threonine-protein kinase (Homo sapiens) (UniProt P04049); assay: Inhibition of wild-type human partial length RAF1 (I330 to T640 residues) expressed in bacterial expression system assessed as residual activity at 1 uM by Kinomescan method relative to control
[19] = molecular target: Rho-associated protein kinase 2 (Homo sapiens) (UniProt O75116); assay: Inhibition of wild-type human partial length ROCK2 (M1 to T431 residues) expressed in mammalian expression system assessed as residual activity at 1 uM by Kinomescan method relative to control
[20] = molecular target: Ribosomal protein S6 kinase alpha-4 (Homo sapiens) (UniProt O75676); assay: Inhibition of wild-type human partial length N-terminal RPS6KA4 kinase domain 1 expressed in bacterial expression system assessed as residual activity at 1 uM by Kinomescan method relative to control
[21] = molecular target: Activated CDC42 kinase 1 (Homo sapiens) (UniProt Q07912); assay: Inhibition of wild-type human partial length TNK2 (S159 to D474 residues) expressed in bacterial expression system assessed as residual activity at 1 uM by Kinomescan method relative to control
[22] = molecular target: High affinity nerve growth factor receptor (Homo sapiens) (UniProt P04629); assay: Inhibition of wild-type human partial length TRKA (G475 to G790 residues) expressed in mammalian expression system assessed as residual activity at 1 uM by Kinomescan method relative to control
[23] = molecular target: Transient receptor potential cation channel subfamily M member 6 (Homo sapiens) (UniProt Q9BX84); assay: Inhibition of wild-type human partial length TRPM6 (Q1723 to I1998 residues) expressed in mammalian expression system assessed as residual activity at 1 uM by Kinomescan method relative to control
[24] = molecular target: Tyrosine-protein kinase TXK (Homo sapiens) (UniProt P42681); assay: Inhibition of wild-type human partial length TXK (L238 to W527 residues) expressed in bacterial expression system assessed as residual activity at 1 uM by Kinomescan method relative to control
[25] = molecular target: Wee1-like protein kinase 2 (Homo sapiens) (UniProt P0C1S8); assay: Inhibition of wild-type human partial length WEE2 (M204 to K492 residues) expressed in bacterial expression system assessed as residual activity at 1 uM by Kinomescan method relative to control

Tyrosine-protein kinase BTK, sequence (Q06187 2-659 C481S limits assumed): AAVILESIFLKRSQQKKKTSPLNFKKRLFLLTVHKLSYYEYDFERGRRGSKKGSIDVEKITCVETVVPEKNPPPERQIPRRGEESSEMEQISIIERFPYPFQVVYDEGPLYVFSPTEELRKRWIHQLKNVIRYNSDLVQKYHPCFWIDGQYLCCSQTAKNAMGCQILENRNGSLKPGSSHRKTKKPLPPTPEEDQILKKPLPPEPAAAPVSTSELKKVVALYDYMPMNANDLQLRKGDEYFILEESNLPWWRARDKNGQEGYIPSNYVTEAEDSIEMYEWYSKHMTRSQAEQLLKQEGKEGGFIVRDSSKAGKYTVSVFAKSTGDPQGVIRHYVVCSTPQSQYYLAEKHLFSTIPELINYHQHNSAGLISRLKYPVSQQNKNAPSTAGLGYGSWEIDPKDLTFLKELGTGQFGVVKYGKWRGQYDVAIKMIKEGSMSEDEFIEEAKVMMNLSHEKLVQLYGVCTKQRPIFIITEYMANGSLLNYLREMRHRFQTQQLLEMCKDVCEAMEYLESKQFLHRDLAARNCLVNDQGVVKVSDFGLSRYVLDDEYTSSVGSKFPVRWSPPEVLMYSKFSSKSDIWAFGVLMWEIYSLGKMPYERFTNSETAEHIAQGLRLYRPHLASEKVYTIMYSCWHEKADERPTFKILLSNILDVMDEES

## C=CC(=O)Nc1cc(Nc2cc(-c3cccc(NC(=O)c4ccc(C(C)(C)C)cc4)c3C)cn(C)c2=O)ccc1C(=O)N1CCOCC1
[1]
  EC50: > 0.1 µM
OCI-AML-3
  GI50: 3.8 µM
[2]
  Cmax: 32.8 ng/mL
[3]
  Activity: 100%
[4]
  Activity: 100%
[5]
  Activity: 99%
[6]
  Activity: 100%
[7]
  Activity: 100%
[8]
  Activity: 79%
[9]
  Activity: 100%
[10]
  Activity: 100%
[11]
  Activity: 95%
[12]
  Activity: 95%
[13]
  Activity: 93%
[14]
  Activity: 56%
[15]
  Activity: 93%
[16]
  Activity: 100%
[17]
  Activity: 100%
[18]
  Activity: 99%
[19]
  Activity: 92%
[20]
  Activity: 97%
[21]
  Activity: 95%
[22]
  Activity: 91%
[23]
  Activity: 99%
[24]
  Activity: 100%
[25]
  Activity: 100%
